Measured values taken from US20130224236A1, “HSV-1 EPITOPES AND METHODS FOR USING SAME” (UNIVERSITY OF WASHINGTON, priority 2010, published 2013).

How the values were obtained:
[1] = test system: bulk polyclonal CD8 effector cells; assay: ORFeome CD8 screen: IFN-γ ELISA after adding CD8 responders to Cos-7 aAPC co-transfected with HLA class I cDNA and HSV-1 ORF; format: cell-based, human
[2] = test system: Bulk-expanded HSV-1-reactive CD4 T-cell lines; assay: ORFeome CD4 screen: 3H thymidine proliferation to recombinant HSV-1 proteins; format: cell-based, human; conditions: of 11 persons

Substance: UL46: HSV-1 tegument protein VP11/12 encoded by gene UL46
- number of distinct restricting HLA alleles ([1]; CD8 recognition): 7
- CD8 IFN-γ responses to HSV-1 polypeptide (ORF level) ([1]; amongst the 7 participants, HLA A, B, C screens): elicit CD8 IFN-γ responses
- number of persons with CD8 recognition of the ORF ([1]; of 7 persons): 5
- number of HLA-level screens in which the ORF was recognized ([1]; of 39 screens): 10
- number of persons with CD4 recognition of the protein [2]: 11
